Results: PubChem BioAssay (NCI)
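Where inhibition never reached the appropriate level, the endpoint shown equals the highest concentration tested. Otherwise, values were interpolated linearly from a five-concentration, 48-hour dose response in 96-well plates. TGI: concentration producing complete growth inhibition.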

What was measured:
Experiment in all cases: NCI anticancer screen, dose series, 48 h
A549 NSCLC = test system: A549 NSCLC
HL-60(TB) leukemia = test system: HL-60(TB) leukemia
M14 melanoma = test system: M14 melanoma
MCF7 breast = test system: MCF7 breast
MDA-MB-435 = test system: MDA-MB-435
MDA-N = test system: MDA-N
NCI-H460 lung = test system: NCI-H460 lung
NCI/ADR-RES ovarian = test system: NCI/ADR-RES ovarian
SN12C renal = test system: SN12C renal
SNB-75 CNS = test system: SNB-75 CNS
UO-31 renal = test system: UO-31 renal
MALME-3M melanoma = test system: MALME-3M melanoma

Row | SMILES | TGI (A549 NSCLC) [µM] | TGI (HL-60(TB) leukemia) [µM] | TGI (M14 melanoma) [µM] | TGI (MCF7 breast) [µM] | TGI (MDA-MB-435) [µM] | TGI (MDA-N) [µM] | TGI (NCI-H460 lung) [µM] | TGI (NCI/ADR-RES ovarian) [µM] | TGI (SN12C renal) [µM] | TGI (SNB-75 CNS) [µM] | TGI (UO-31 renal) [µM] | TGI (MALME-3M melanoma) [µM]
1 | CN(C(=O)C12C3C4C1C1C2C3C41C(=O)O)C(C)(C)C (configuration not stated) | > 100 | > 100 | > 100 | > 100 | > 100 | > 100 | > 100 | > 100 | > 100 | > 100 | > 100 | 
2 | C(=C\c1ccccc1)/Cn1nc(-c2ccccc2)nc1-c1cnccn1 | > 100 | > 100 | > 100 | > 100 | > 100 | > 100 | > 100 |  | > 100 | > 100 | > 100 | 
3 | COc1ccc(-c2cc(-c3ccccc3)c3c(n2)-c2ccccc2NC(=O)C3)cc1 | > 100 | > 100 | > 100 | > 100 | > 100 | > 100 | > 100 | > 100 | > 100 | 37.8 | > 100 | 94.1
4 | COc1ccccc1-c1n[nH]c(-c2ccccc2O)n1 | > 100 | > 100 | > 100 | > 100 | > 100 | > 100 | > 100 | > 100 | > 100 | > 100 | > 100 | 
5 | COC(=O)/C=C/COCC1C2CCC(=O)C21 (configuration not stated) | > 100 |  | > 100 | > 100 | > 100 | > 100 | > 100 | > 100 | > 100 | > 100 | > 100 | > 100
6 | CCOC(=O)c1nc2cc(F)c(F)cc2nc1NCc1cc(OC)c(OC)c(OC)c1 | > 100 | > 100 | > 100 | > 100 | > 100 | > 100 | > 100 | > 100 | > 100 | > 100 | > 100 | > 100
7 | COC(=O)C1=C(C(=O)OC)C2(c3ccccc3)c3ccccc3C(=O)C1N2C1CCCCC1 (configuration not stated) | > 100 | > 100 | > 100 | > 100 | > 100 | > 100 | > 100 | > 100 | > 100 | > 100 | > 100 | > 100
8 | CCCCC1=C(C(=O)N2CCOCC2)C2(OCCO2)C1Cl (configuration not stated) | 48.9 | > 100 | 33.9 | > 100 | 67.8 | 39.7 |  | > 100 | 50.1 | > 100 | > 100 | > 100
9 | N#Cc1c(Cl)cccc1Oc1ccc(S(=O)(=O)/N=C(\NO)Nc2ccc(Cl)cc2)cc1 | 32.2 | 37.8 | 29.2 | 46.2 | 31.7 | 29.9 | 36.4 | 48 | 29.4 |  | 27.2 | 33.9
10 | [N-]=[N+]=NC1(c2ccccc2)C(=O)c2cccc3c4ccccc4n(c23)C1=O (configuration not stated) | > 100 |  | > 100 | > 100 | 92.8 | > 100 | > 100 | > 100 | > 100 | > 100 | > 100 | > 100
11 | CCOC(=O)N(C)CCC1CC=CC(=O)C1c1cccc(OC)c1OC (configuration not stated) | 91 | 52.5 | 55 | 56.6 | 28.8 | 36.4 | 48.2 | 80.1 | 39.7 |  | 35.9 | 60.1
12 | c1ccc2nc3c(nc2c1)sc1nc2ccccc2n13 | > 100 | > 100 | > 100 | > 100 | > 100 | > 100 | > 100 | > 100 | > 100 | > 100 | > 100 | > 100
13 | CCOC(=O)C(C)c1nc2cc(F)c(N3CCOCC3)cc2[nH]c1=O (configuration not stated) | > 100 |  | > 100 | > 100 | > 100 | > 100 | > 100 | > 100 | > 100 | > 100 | > 100 | > 100
14 | COc1ccc2c(c1OC)C(Br)CCC(Br)(Br)C2=O (configuration not stated) | 29 | 23.7 | 18.3 | 21.3 | 19.3 | 14.2 | 31 | 40.2 | 16.7 |  | 14 | 22.6
15 | COc1ccc(OC)c2sc(N3C(=O)/C(=C/c4ccc(N(C)C)cc4)N=C3c3ccccc3)nc12 | > 100 | 64.3 | > 100 | 63.4 | > 100 | 61.3 | > 100 | > 100 | > 100 | > 100 | > 100 | 
16 | O=[N+]([O-])/C(C(Cl)=C(Cl)Cl)=C(\Nc1cccc2cccnc12)Sc1ccccc1 | > 100 |  | > 100 | > 100 | 42.7 | > 100 | > 100 | 63.5 | 87.7 | 72.2 | 49.7 | 64.9
17 | Nc1nc([O-])c([I+]c2ccccc2)c(=O)[nH]1 | > 100 | > 100 |  | > 100 | > 100 | > 100 | > 100 | > 100 | > 100 | > 100 | > 100 | > 100
18 | CC1(C)C2CC1C(/C=N\OCC(=O)O)=CC2=O (configuration not stated) | > 100 | > 100 | > 100 | > 100 | > 100 | > 100 | > 100 | > 100 | > 100 | 97.9 | > 100 | > 100
19 | NS(=O)(=O)c1ccc(NC(=S)/N=C/c2c(O)c3ccccc3[nH]c2=O)cc1 | > 100 | 5.05 | > 100 | > 100 | > 100 | > 100 | > 100 | > 100 | > 100 | > 100 | > 100 | 
20 | Clc1ccccc1-c1nn2c(CCCCCCCCc3nnc4sc(-c5ccccc5Cl)nn34)nnc2s1 | > 100 |  | > 100 | > 100 | > 100 | > 100 | > 100 | > 100 | > 100 | > 100 | > 100 | > 100

Row | SMILES | TGI (A549 NSCLC) [µM] | TGI (HL-60(TB) leukemia) [µM] | TGI (M14 melanoma) [µM] | TGI (MCF7 breast) [µM] | TGI (MDA-MB-435) [µM] | TGI (MDA-N) [µM] | TGI (NCI-H460 lung) [µM] | TGI (NCI/ADR-RES ovarian) [µM] | TGI (SN12C renal) [µM] | TGI (SNB-75 CNS) [µM] | TGI (UO-31 renal) [µM] | TGI (MALME-3M melanoma) [µM]
21 | CCOC(=O)Nn1cnnc1Cc1ccccc1 | > 100 |  | > 100 | > 100 | > 100 | > 100 | > 100 | > 100 | > 100 |  | > 100 | > 100
22 | O=C1c2scc(-c3ccc(F)cc3)c2-n2cccc21 | > 100 |  | > 100 | > 100 | 31.4 | 28.8 | > 100 | > 100 | 87.9 | 45.2 | > 100 | > 100
23 | N#Cc1c(-c2cccc(Br)c2)cc(-c2ccc(Cl)cc2)nc1N | 57 | 69 | 41.1 | > 100 | 38.2 | 46.7 | 50.8 | 55.6 | 35.9 |  | 48.7 | 70.9
24 | C=C[C@@]1(C)CC(=O)[C@]2(O)[C@@]3(C)[C@@H](OC(C)=O)CCC(C)(C)[C@@H]3[C@H](O)[C@H](OC(C)=O)[C@@]2(C)O1 | > 100 |  | > 100 | > 100 | > 100 | > 100 | > 100 | > 100 | > 100 | 87.7 | > 100 | 
25 | c1ccc2c(c1)Sc1ccccc1N2CCCN1c2ccccc2Sc2ccccc21 | > 100 |  | > 100 | > 100 | > 100 | > 100 | > 100 | > 100 | > 100 |  | > 100 | > 100
26 | C[C@@H]1C(=O)O[C@@H]2C[C@@]1(C)[C@@H]1C(=O)C3(O)OC14C2(C)OC(=O)[C@@]4(O)CCC1C3C(O)C=C2CC=CC(=O)[C@@]21C (some centres not stated) | > 100 | 40.8 | 90.8 | > 100 | 79.4 | > 100 | > 100 | > 100 | > 100 | 54.2 | 87.9 | 
27 | Cc1ccc(/C(O)=C/c2nc3ccccc3nc2NC23CC4CC(CC(C4)C2)C3)cc1 | > 10 | > 10 | > 10 | > 10 | > 10 | > 10 |  | > 10 | > 10 | > 10 |  | > 10
28 | N#CCN(Cc1ccccc1)[C@H]1CCC[C@]1(O)/C=C/c1ccc2c(c1)OCO2 | > 100 | 34.9 | 30.2 | 39.6 | 53.2 | 35.7 | 38.2 | 42 |  | > 100 | > 100 | 32.1
29 | CCOC(=O)C12C3CCC1C2C(=O)C3 (configuration not stated) | > 100 |  | > 100 | > 100 | > 100 | > 100 | > 100 | > 100 | > 100 | > 100 | > 100 | > 100
31 | COC1/C=C/C(C)C(C(C)C(OC)C(C)CCC(=O)C(C)C(CC(=O)O)OC)OC(=O)/C=C/C=C(\C)CC(OC)C(OC)C2=CC(=O)O[C@@H](C(C)C(OC)CC(OC)/C=C/C(C)C(O)C1)[C@H]2O (some centres not stated) | 0.437 | 0.074 | 0.0739 | > 1.07 | 1.02 | > 1.07 | > 1.07 | 0.47 | > 1.07 | 0.0982 | 0.15 | 
32 | CC1=NN(c2cccc(Cl)c2)C(=N/c2nc3ccccc3s2)/C1=C\c1ccccc1O |  | 80.6 | > 100 | > 100 | > 100 | 93.5 | 84.4 | 63.7 |  | > 100 | > 100 | 
33 | CN(C)Cc1cc(N=Nc2c(Cl)cccc2Cl)ccc1O | > 100 | > 100 |  | > 100 | > 100 | > 100 | > 100 | > 100 | > 100 | > 100 | > 100 | > 100
34 | O=c1ccc(-c2ccc(-n3ccnc3)cc2)nn1CCO | > 100 | > 100 | > 100 | > 100 | > 100 | > 100 | > 100 |  | > 100 | > 100 | > 100 | > 100
35 | O=c1[nH]nc(Cc2ccccc2)n1N=C1CCCCC1 | > 100 | > 100 | > 100 | > 100 | > 100 | > 100 | > 100 | > 100 | > 100 |  | > 100 | > 100
36 | Cc1nc(C)c(N2CCN(C(=O)NC(CCC(=O)O)C(=O)O)CC2)c(=O)[nH]1 (configuration not stated) | > 100 | > 100 | > 100 | > 100 | > 100 | > 100 | > 100 | > 100 | > 100 |  | > 100 | > 100
37 | O=C1CSC2(CC(/C=C/c3cccc(Br)c3)=NN2c2cccc(S(=O)(=O)O)c2)N1c1nc2ccccc2s1 (configuration not stated) | > 100 |  | > 100 | > 100 | > 100 | > 100 | > 100 | > 100 | > 100 | > 100 | > 100 | > 100
38 | O=C(/C=C/c1ccsc1)c1cccs1 | > 100 |  | 54.4 | 52.2 | > 10 | > 100 | > 100 | 44.9 | 41.9 | > 100 | 34.3 | > 100
39 | COc1ccc2c(c1)nc1n2C(c2c(F)cccc2F)SC1 (configuration not stated) | > 100 | > 100 | > 100 | > 100 | > 100 | > 100 | > 100 | > 100 | > 100 | > 100 | > 100 | 
